Assay results: patent publication US6649763B1, “Optically active quinoline carboxylic acid derivatives with 7-pyrrolidine substituents causing optical activity and a process for the preparation thereof” (Dong Wha Pharm. Ind. Co., Ltd., priority 1999, dated 2003)
Values after ≈ are worked out from the molar mass of the structure shown.

Tests used:
Escherichia coli DC 0 = assay: Antibacterial activity in vitro (MIC, agar dilution); type: cell-based; conditions: DC0, standard strain Escherichia coli DC 0, read-out: minimum inhibitory concentration (MIC)
Method: (§1) The optically active quinoline carboxylic acid derivatives of the present invention were tested as to whether they could be useful as antibacterial compounds. In this regard, the compounds were measured for minimum inhibitory concentration (MIC: unit μg/ml) according to an agar dilution process (Hoechst 345) in which Muller-Hinton agars were diluted two fold. For comparison, ciprofloxacin and sparfloxacin were used as controls. Corresponding enantiomers and racemates of the compounds of interest were also used as comparative ones. Bacteria were inoculated at an amount of about 10^7 cfu/ml onto each agar. 18 hours after the inoculation at 37° C., the growth of the bacteria was observed. As to methicillin-resistant strains, their growth was observed 48 hours after the inoculation at […]. Hoechst standard strains were used as the test bacteria.

Escherichia coli DC 2 = assay: as above; type: cell-based; conditions: DC2, standard strain Escherichia coli DC 2, read-out: minimum inhibitory concentration (MIC)
Method: as §1

[1] = system: Pseudomonas aeruginosa 1771M; assay: as above; type: cell-based; conditions: read-out: minimum inhibitory concentration (MIC)
Method: as §1

[2] = system: Staphylococcus aureus 121E; assay: as above; type: cell-based; conditions: resistant strain Staphylococcus aureus 121E, read-out: minimum inhibitory concentration (MIC)
Method: as §1

[3] = system: Staphylococcus aureus 179; assay: as above; type: cell-based; conditions: resistant strain Staphylococcus aureus 179, read-out: minimum inhibitory concentration (MIC)
Method: as §1

[4] = system: Staphylococcus aureus 208E; assay: as above; type: cell-based; conditions: resistant strain Staphylococcus aureus 208E, read-out: minimum inhibitory concentration (MIC)
Method: as §1

[5] = system: Staphylococcus aureus 241; assay: as above; type: cell-based; conditions: resistant strain Staphylococcus aureus 241, read-out: minimum inhibitory concentration (MIC)
Method: as §1

[6] = system: Staphylococcus aureus 256E; assay: as above; type: cell-based; conditions: resistant strain Staphylococcus aureus 256E, read-out: minimum inhibitory concentration (MIC)
Method: as §1

[7] = system: Staphylococcus aureus 285; assay: as above; type: cell-based; conditions: standard strain Staphylococcus aureus 285, read-out: minimum inhibitory concentration (MIC)
Method: as §1

[8] = system: Staphylococcus aureus 293; assay: as above; type: cell-based; conditions: resistant strain Staphylococcus aureus 293, read-out: minimum inhibitory concentration (MIC)
Method: as §1

[9] = system: Staphylococcus aureus 303; assay: as above; type: cell-based; conditions: resistant strain Staphylococcus aureus 303, read-out: minimum inhibitory concentration (MIC)
Method: as §1

[10] = system: Staphylococcus aureus 503; assay: as above; type: cell-based; conditions: standard strain Staphylococcus aureus 503, read-out: minimum inhibitory concentration (MIC)
Method: as §1

[11] = system: Staphylococcus aureus 690E; assay: as above; type: cell-based; conditions: resistant strain Staphylococcus aureus 690E, read-out: minimum inhibitory concentration (MIC)
Method: as §1

[12] = system: Staphylococcus aureus 692E; assay: as above; type: cell-based; conditions: resistant strain Staphylococcus aureus 692E, read-out: minimum inhibitory concentration (MIC)
Method: as §1

[13] = system: Staphylococcus aureus 693E; assay: as above; type: cell-based; conditions: resistant strain Staphylococcus aureus 693E, read-out: minimum inhibitory concentration (MIC)
Method: as §1

[14] = system: Staphylococcus aureus 88E; assay: as above; type: cell-based; conditions: resistant strain Staphylococcus aureus 88E, read-out: minimum inhibitory concentration (MIC)
Method: as §1

[15] = system: Staphylococcus aureus SG511; assay: as above; type: cell-based; conditions: standard strain Staphylococcus aureus SG511, read-out: minimum inhibitory concentration (MIC)
Method: as §1

[16] = system: Streptococus faecium MD 8b; assay: as above; type: cell-based; conditions: standard strain Streptococus faecium MD 8b, read-out: minimum inhibitory concentration (MIC)
Method: as §1

[17] = system: Streptococus pyogenes 308A; assay: as above; type: cell-based; conditions: standard strain Streptococus pyogenes 308A, read-out: minimum inhibitory concentration (MIC)
Method: as §1

[18] = system: Streptococus pyogenes 77A; assay: as above; type: cell-based; conditions: standard strain Streptococus pyogenes 77A, read-out: minimum inhibitory concentration (MIC)
Method: as §1

Enterobacter cloacae P99 = assay: as above; type: cell-based; conditions: standard strain Enterobacter cloacae P99, read-out: minimum inhibitory concentration (MIC)
Description: Corresponding enantiomers and racemates of the compounds of interest were also used as comparative ones. Bacteria were inoculated at an amount of about 10^7 cfu/ml onto each agar. […] Hoechst standard strains were used as the test bacteria.

Escherichia coli = assay: Antibacterial activity in vitro, potency comparison; type: cell-based; conditions: against Escherichia coli, a representative Gram-negative strain
Method: as §1

Gram-positive bacteria = assay: as above; type: cell-based; conditions: against Gram-positive bacteria
Method: as §1

[19] = system: Staphylococcus aureus and Staphylococcus epidermis, both resistant to quinolone antibacterial agents; assay: as above; type: cell-based; conditions: for fold more potent antibacterial activity than its enantiomer / fold more potent antibacterial activity than its racemate: against resistant staphylcoccus aureus and staphylococcus epidermis (Table 2)
Method: as §1

in vivo = assay: in vivo
Method: After being starved for 16 hours, SD rats were orally administered at a dose of 40 mg/5 ml/kg with the compounds of interest and at a dose of 50 mg/5 ml/kg with the control. Immediately after being drawn at predetermined times from the eyeballs, blood was separated into plasma and other ingredients and quantitatively analyzed for pharmacokinetic parameters by use of high performance liquid chromatograph (HPLC).

[20] = system: Staphylococcus epidermidis 319; assay: Antibacterial activity in vitro (MIC, agar dilution); type: cell-based; conditions: Staphylococcus epidermidis, 319, resistant strain Staphylococcus epidermidis 319, read-out: minimum inhibitory concentration (MIC)
Method: as §1

[21] = system: Staphylococcus epidermidis 329; assay: as above; type: cell-based; conditions: Staphylococcus epidermidis, 329, resistant strain Staphylococcus epidermidis 329, read-out: minimum inhibitory concentration (MIC)
Method: as §1

Phototoxicity test = type: in vivo; conditions: CD-1 female mice, oral 50 mg/kg, after 48 hours of the UV exposure
Method: It is known that the presence of a halogen atom at the 8-position of the quinolone nuclei causes phototoxicity.
After 16 hours of starvation, CD-1 female mice were orally administered with a dose of 50 mg/kg of the compounds and allowed to be exposed for 4.5 hours to a UVA light source. The mice were located 15 cm away from the light source. Whether the mice were damaged in their ears was adopted as a main factor for the phototoxicity and determined after 24 hour and 48 hour UV exposure. The edema which the mice suffered were examined by measuring the thickness changes of their ears with the aid of electronic calipers and calculating average values. Also, an observation was made as to whether the mice suffered from erythema.

[22] = against resistant Staphylococcus aureus and Staphylococcus epidermis

SMILES | MIC (Escherichia coli DC 0) [mg/L] | MIC (Escherichia coli DC 2) [mg/L] | MIC [1] [mg/L] | MIC [2] [mg/L] | MIC [3] [mg/L] | MIC [4] [mg/L] | MIC [5] [mg/L] | MIC [6] [mg/L] | MIC [7] [mg/L] | MIC [8] [mg/L] | MIC [9] [mg/L] | MIC [10] [mg/L] | MIC [11] [mg/L] | MIC [12] [mg/L] | MIC [13] [mg/L] | MIC [14] [mg/L] | MIC [15] [mg/L] | MIC [16] [mg/L] | MIC [17] [mg/L] | MIC [18] [mg/L] | also measured
CO/N=C1\CN(c2nc3c(cc2F)c(=O)c(C(=O)O)cn3C2CC2)CC1(C)CN.Cl (single isomer, unassigned; (-)) [Example 9, (−)-7-(4-Aminomethyl-4-methyl-3-(Z)-methyloxyiminopyrrolidin-1-yl)-1-cyclopropyl-6-fluoro-4-oxo-1,4-dihydro[1,8]naphthyridine-3-carboxylic Acid Hydrochloride] | 0.004 | 0.195 | 0.391 | < 0.002 | 0.098 | < 0.002 | 0.098 | < 0.002 | 0.007 | 0.098 | 0.098 | 0.004 | < 0.002 | < 0.002 | < 0.002 | < 0.002 | 0.004 | 0.049 | 0.025 | 0.013 | MIC (Enterobacter cloacae P99): 0.025 mg/L; fold more potent antibacterial effect than ciprofloxacin (Escherichia coli): almost the same antibacterial potency; fold more potent antibacterial effect than sparfloxacin (Escherichia coli): almost the same antibacterial potency; fold higher antibacterial activity than ciprofloxacin (Gram-positive bacteria): 4-112 fold; fold higher antibacterial activity than sparfloxacin (Gram-positive bacteria): 4-30 fold; times as potent in antibacterial activity as ciprofloxacin [19, 22]: 128-390 times; times as potent in antibacterial activity as sparfloxacin [19, 22]: 24-64 times; fold more potent antibacterial activity than its enantiomer [19]: 8-32 fold; fold more potent antibacterial activity than its racemate [19]: 4 fold; Cmax (in vivo; SD, rat, in vivo, po, 40 mg/kg): 9.06 ± 2.04 µg/mL; half-life (in vivo; SD, rat, in vivo, po, 40 mg/kg): 4.5 h
CO/N=C1\CN(c2cc3c(cc2F)c(=O)c(C(=O)O)cn3C2CC2)CC1(C)CN.Cl (single isomer, unassigned; (-)) [Example 19, (−)-7-(4-Aminomethyl-4-methyl-3-(Z)-methyloxyiminopyrrolidin-1-yl)-1-cyclopropyl-6-fluoro-4-oxo-1,4-dihydro-3-quinolinecarboxylic Acid Hydrochloride] | 0.007 | 0.195 | 0.195 | 0.007 | 0.195 | 0.007 | 0.195 | 0.007 | 0.007 | 0.195 | 0.195 | 0.007 | 0.004 | 0.004 | 0.007 | 0.007 | 0.004 | 0.049 | 0.049 | 0.013 | MIC [20]: 0.391 mg/L; MIC [21]: 0.391 mg/L; MIC (Enterobacter cloacae P99): 0.025 mg/L; fold more potent antibacterial activity than its enantiomer [19]: 12-32 fold; fold more potent antibacterial activity than its racemate [19]: Two-fold higher potency
O=C(O)c1cn(C2CC2)c2cc(N3CCNCC3)c(F)cc2c1=O [Ciprofloxacin, ciprofloxacin] | 0.195 (≈ 0.589 µM) | 0.098 (≈ 0.296 µM) | 0.098 (≈ 0.296 µM) | 0.781 (≈ 2.36 µM) | 12.5 (≈ 37.7 µM) | 0.781 (≈ 2.36 µM) | 12.5 (≈ 37.7 µM) | 0.781 (≈ 2.36 µM) | 0.781 (≈ 2.36 µM) | 12.5 (≈ 37.7 µM) | 12.5 (≈ 37.7 µM) | 0.391 (≈ 1.18 µM) | 0.391 (≈ 1.18 µM) | 0.391 (≈ 1.18 µM) | 0.391 (≈ 1.18 µM) | 0.781 (≈ 2.36 µM) | 0.195 (≈ 0.589 µM) | 0.391 (≈ 1.18 µM) | 3.12 (≈ 9.43 µM) | 0.391 (≈ 1.18 µM) | MIC [20]: 100 mg/L (≈ 302 µM); MIC [21]: 50 mg/L (≈ 151 µM); Area Under Curve (in vivo; SD rats, oral, control at 50 mg/5 ml/kg): 12.72 µg·h/mL
C[C@@H]1CN(c2c(F)c(N)c3c(=O)c(C(=O)O)cn(C4CC4)c3c2F)C[C@H](C)N1 [Sparfloxacin, sparfloxacin] | 0.195 (≈ 0.497 µM) | 0.025 (≈ 0.0637 µM) | 0.098 (≈ 0.25 µM) | 0.098 (≈ 0.25 µM) | 6.25 (≈ 15.9 µM) | 0.098 (≈ 0.25 µM) | 6.25 (≈ 15.9 µM) | 0.098 (≈ 0.25 µM) | 0.009 (≈ 0.0229 µM) | 6.25 (≈ 15.9 µM) | 3.12 (≈ 7.96 µM) | 0.049 (≈ 0.125 µM) | 0.049 (≈ 0.125 µM) | 0.049 (≈ 0.125 µM) | 0.049 (≈ 0.125 µM) | 0.098 (≈ 0.25 µM) | 0.098 (≈ 0.25 µM) | 0.391 (≈ 0.996 µM) | 0.391 (≈ 0.996 µM) | 0.391 (≈ 0.996 µM) | MIC [20]: 12.5 mg/L (≈ 31.9 µM); MIC [21]: 12.5 mg/L (≈ 31.9 µM); MIC (Enterobacter cloacae P99): 0.007 mg/L (≈ 0.0178 µM); edema and erythema observed after UV exposure (Phototoxicity test): serious edema and erythema; increase in ear thickness compared with before the UV exposure (Phototoxicity test): 150%
